Common to all, as to format: binding
The target in one assay is T1, Langerin ECD (Homo sapiens, UniProt Q9UJ71, V278A).
T1 construct: residues 148 to 328; TEV site (C); StreptagII (C); made in house; host or cells: E. coli BL21* (DE3)
Briefly: 19F R2-filtered NMR reporter displacement assay (Ki determination). As to conditions: Langerin ECD 50 μM, pH 7.8, 25° C. The method, then:
Langerin extracellular domain. Expression and purification were conducted as previously published (Wamhoff, E. C. et al. (19)F Nmr-Guided Design of Glycomimetic Langerin Ligands. ACS Chem Biol, 11, 2407-13 (2016)). Briefly, the trimeric Langerin extracellular domain (ECD) was expressed insolubly in E. coli BL21* (DE3) (Invitrogen). Following enzymatic cell lysis, inclusion bodies were harvested and subsequently solubilized. The sample was centrifuged and the Langerin ECD was refolded overnight via rapid dilution. Next, the sample was dialyzed overnight, centrifuged and purified via mannan-agarose affinity chromatography (Sigma Aldrich). For ^19F R2-filtered NMR and lipid-enzyme-linked lectin assay (Lipid-ELLA) experiments, the buffer was exchanged to 25 mM Tris with 150 mM NaCl and 5 mM CaCl2 at pH 7.8 using 7 kDa size-exclusion desalting columns (Thermo Scientific). For STD NMR experiments, Langerin ECD samples were dialyzed five times for at least 8 h against H2O. Subsequently, the H2O was removed via lyophilization and the residue was stored at −80° C. Prior to STD NMR experiments, the Langerin ECD was dissolved in 25 mM Tris-d11 (Eurisotope) with 100% D2O, 150 mM NaCl and 5 mM CaCl2 at pH 7. The concentration of Langerin ECD was determined via UV spectroscopy (A280, 0.1%=2.45). Purity and monodispersity of Langerin ECD samples were analyzed via SDS PAGE and DLS.
General remarks. ^19F R2-filtered NMR experiments were conducted on a PremiumCompact 600 MHz spectrometer (Agilent). Spectra were processed in MestReNova and data analysis was performed with OriginPro (Mestrelab Research. Mestrenova. 11.0.2. (2016); OriginLab. Originpro. 9.1. (2015)). Experiments with the Langerin ECD were performed at a receptor concentration of 50 μM in 25 mM Tris with 10% D2O, 150 mM NaCl and 5 mM CaCl2 at pH 7.8 and 25° C. Experiments with the DC-SIGN CRD were performed at a receptor concentration of 50 μM in 25 mM HEPES with 10% D2O, 150 mM NaCl and 5 mM CaCl2 at pH 7.0 and 25° C. TFA served as an internal reference at a concentration of 50 μM. Apparent relaxation rates R2,obs for the reporter ligand were determined using the CPMG pulse sequence as previously published (Wamhoff, E. C. et al. (19)F Nmr-Guided Design of Glycomimetic Langerin Ligands. ACS Chem Biol, 11, 2407-13 (2016): Carr, H. Y. & Purcell, E. M. Effects of Diffusion on Free Precession in Nuclear Magnetic Resonance Experiments. Phys Rev, 94, 630-638 (1954); Meiboom, S. & Gill, D. Modified Spin-Echo Method for Measuring Nuclear Relaxation Times. Rev Sci Instrum 29, 688-691 (1958)).
Ki determination. Ki values were determined as previously published for Langerin (Wamhoff, E. C. et al. (19)F NMR-Guided Design of Glycomimetic Langerin Ligands. ACS Chem Biol 11, 2407-13 (2016)). Briefly, titration experiments were conducted at a concentration of 0.1 mM of reporter ligand 24 at five competitor concentrations [I]T. Samples were prepared via serial dilution. For the acids GlcNS, GlcNAc-6-OS and GlcNS-6-OS the pH values were monitored and adjusted to 7.8 if necessary.

The target in assay [1] is T2, DC-SIGN CRD (Homo sapiens, UniProt Q9NNX6).
T2 construct: residues 205 to 404; TEV site (C); StreptagII (C); made in house; host or cells: E. coli BL21* (DE3)
T2 sequence (Q9NNX6 250-404): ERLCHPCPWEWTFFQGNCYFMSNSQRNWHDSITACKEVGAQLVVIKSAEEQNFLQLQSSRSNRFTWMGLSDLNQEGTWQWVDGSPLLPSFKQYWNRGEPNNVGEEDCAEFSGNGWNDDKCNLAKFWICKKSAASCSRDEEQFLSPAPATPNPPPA
Kind of assay: 19F R2-filtered NMR reporter displacement assay transferred to DC-SIGN. As to conditions: 19F R2-filtered NMR, DC-SIGN CRD 50 μM, pH 7.0, 25° C. The method, then: (§1) Langerin and DC-SIGN carbohydrate recognition domain. Expression and purification were conducted as previously published. Briefly, the monomeric ^15N-labeled Langerin and DC-SIGN carbohydrate recognition domains (CRDs) were expressed insolubly in E. coli BL21* (DE3) (Invitrogen). Following enzymatic cell lysis, inclusion bodies were harvested and subsequently solubilized. The sample was centrifuged and the Langerin and DC-SIGN CRDs were refolded overnight via rapid dilution. Next, the sample was dialyzed overnight, centrifuged and purified via StrepTactin affinity chromatography (Iba). After an additional dialysis step overnight, the sample was centrifuged and the buffer was exchanged to 25 mM HEPES with 150 mM NaCl at pH 7.0 using 7 kDa size-exclusion desalting columns (Thermo Scientific) for ^19F R2-filtered and ^15N HSQC NMR experiments. The concentration of Langerin and DC-SIGN CRDs was determined via UV spectroscopy (A280, 0.1%=3.19 and A280, 0.1%=2.98). Purity and monodispersity of Langerin and DC-SIGN CRD samples were analyzed via SDS PAGE and DLS.
(§2) General remarks. ^19F R2-filtered NMR experiments were conducted on a PremiumCompact 600 MHz spectrometer (Agilent). […] Apparent relaxation rates R2,obs for the reporter ligand were determined using the CPMG pulse sequence as previously published (Wamhoff, E. C. et al. (19)F Nmr-Guided Design of Glycomimetic Langerin Ligands. ACS Chem Biol, 11, 2407-13 (2016): Carr, H. Y. & Purcell, E. M. Effects of Diffusion on Free Precession in Nuclear Magnetic Resonance Experiments. Phys Rev, 94, 630-638 (1954); Meiboom, S. & Gill, D. Modified Spin-Echo Method for Measuring Nuclear Relaxation Times. Rev Sci Instrum 29, 688-691 (1958)).
(§3) Assay development for DC-SIGN. […] Briefly, the KD value and the relaxation rate in bound state R2,b were determined at five concentrations [L]T of reporter ligand 24 in three independent titration experiments. […]
(§4) Ki determination. Ki values were determined as previously published for Langerin (Wamhoff, E. C. et al. (19)F NMR-Guided Design of Glycomimetic Langerin Ligands. ACS Chem Biol 11, 2407-13 (2016)). […]

The test system of assay [2] is DC-SIGN CRD. The assay is described as above. To be noted: Ki Langerin compared to Ki DC-SIGN. The method, then:
as §1, §2, §3, §4

This is an account of results in patent publication US12290535B2, “Langerin+ cell targeting” (Max-Planck-Gesellschaft zur Förderung der Wissenschaften …, priority 2018, dated 2025).

SMILES strings stand for the structures.

T1 sequence (Q9UJ71 148-328 V278A): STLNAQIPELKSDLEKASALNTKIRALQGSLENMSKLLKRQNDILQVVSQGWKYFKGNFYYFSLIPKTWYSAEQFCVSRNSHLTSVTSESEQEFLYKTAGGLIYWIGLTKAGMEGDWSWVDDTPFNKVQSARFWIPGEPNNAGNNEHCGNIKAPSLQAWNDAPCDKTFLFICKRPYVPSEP

One may read the Ki as a dissociation constant, usually derived from enzyme kinetics or from competition with a known ligand. Regarding `CC(=O)NCCO[C@H]1O[C@H](CO)[C@@H](O)[C@H](O)[C@@H]1O` [Man analog 21], the Ki at Langerin ECD was 10 ± 1 mM; at DC-SIGN CRD [1], 2.7 ± 0.3 mM. For the same molecule, in the assay on DC-SIGN CRD [2], the “specificity for DC-SIGN over Langerin” value is listed as 3.7 fold.
